From patent publication US20180353460A1, “METHODS OF TREATING UROLOGICAL DISORDERS USING SARMs” (priority 2014, published 2018)
“And” between values parts separate entries of the source, which are not always exact repeats. Equal entries are not always repeated.

Tested on: levator ani muscle, urethra and endometrium
Experiment: Proof of concept clinical study: quantitative pelvic MRI
Type: in vivo, human
From the text: Secondary Objectives: • To describe the effect of 12 weeks of treatment of Compound IX on the number of voids/day as assessed by the 3 days voiding diary. […] See Tables 2 (individual subject data) and Tables 4-6 (mean pad weight data for sites 1, 2, and 3, respectively), and FIG. 17 for mean and median reductions in pad weights from baseline to week 12 (across all sites). • To describe the effect of 12 weeks of treatment of Compound IX on SUI as assessed by the Urethral Pressure Profile (UPP). The UPP assessment was removed from the protocol because it is invasive and not standard of care. […] See summary data for all subjects across the 3 sites reported in Table 7 and FIGS. 13A and 13B. • Described is the effect of 12 weeks of treatment of Compound IX on subject reported impression of stress urinary incontinence severity as assessed by the Patient Global Impression of Severity Scale (PGI-S). See summary data for all subjects across the 3 sites reported in FIG. 12A. • Described is the effect of 12 weeks of treatment of Compound IX on subject reported impression of improvement as assessed by the Patient Global Impression of Improvement Scale (PGI-I). See summary data for all subjects across the 3 sites reported in FIG. 12B. • Described is the effect of 12 weeks of treatment of Compound IX on subject reported urogenital distress as assessed by the Urinary Distress Inventory Questionnaire (UDI-6). See summary data for all subjects across of 3 sites reported in Table 7 and FIG. 12C. • Described is the effect of 12 weeks of treatment of Compound IX on subject reported impact of urinary incontinence on daily life as assessed by the Incontinence Impact Questionnaire (IIQ-7). See summary data for all subjects across the 3 sites reported in Table 7 and FIG. 12D. • Described is the effect of 12 weeks of treatment of Compound IX on subject reported sexual function as indicated on the completion of the Female Sexual Function Index Questionnaire (FSFI). See summary data for all subjects across the 3 sites reported in Table 7 and FIG. 15. • Described is the effect of 12 weeks of treatment of Compound IX on pelvic floor muscles as measured by MRI. See FIG. 11 wherein the pelvic MRI for one representative subject on trial is reported at baseline and at 12 weeks, FIG. 16 wherein the pelvic MRI's for three representative subjects on trial are reported at baseline and at 12 weeks, and Example 19 and Table 13 which provide individual measurements of levator ani thickness, inner and outer diameter of the urethra, and endometrial thickness, and mean changes in the same from baseline to week 12.
Quantitative MRI was used to visualize the pelvic floor of all post-menopausal subjects with SUI.
In a continuation of the same study from Example 3, quantitative MRI was used to visualize the pelvic floor of 17 post-menopausal subjects with SUI. MRI was used to visualize and measure the mean thickness of the levator ani muscle, inner and outer diameter of the urethra, and the endometrial thickness of patients on trial at baseline and at the MRI visits approximately 12 weeks after baseline (exact times between baseline and second MRI are given). All data analysis used a significance value of 0.05 with one-tailed paired t-test. The mean change in each measurement and the statistical significance calculation for each value are given below: […]

[1] = 17 subjects, baseline to about week 12
[2] = individual patients, about 12 weeks

Structure (SMILES): C[C@](O)(COc1ccc(C#N)cc1)C(=O)Nc1ccc(C#N)c(C(F)(F)F)c1 [Compound IX, (S)—N-(4-Cyano-3-(trifluoromethyl)phenyl)-3-(4-cyanophenoxy)-2-hydroxy-2-methylpropanamide]
- mean change in levator ani muscle thickness (17 subjects, baseline 4.79 mm to week 12, p=0.006): 1.15 mm
- mean change in urethra inner diameter [1]: 0.07 cm
- mean change in urethra outer diameter [1]: 0.07 cm
- Endometrial stripe, follow up MRI [2]: 2 mm (9×) and 3 mm (2×) and 5 mm and 4 mm (2×)
- Mean levator ani (LA) thickness at the level of the proximal urethra, follow up MRI [2]: 4 mm (3×) and 5 mm (3×) and 6 mm (4×) and 1 mm and 6.5 mm and 8 mm and 10.5 mm and 7 mm (2×) and 10 mm
- Urethra inner diameter, follow up MRI [2]: 1.4 cm (2×) and 1.1 cm (3×) and 1.2 cm (2×) and 1 cm (4×) and 0.9 cm (2×) and 1.3 cm (4×)
- Urethra outer diameter, follow up MRI [2]: 1.7 cm (2×) and 1.6 cm (5×) and 1.8 cm (3×) and 1.4 cm (2×) and 1.2 cm and 2 cm and 1.9 cm and 1.3 cm (2×)
- mean increase in inner urethral muscle diameter (week 12, baseline 10.7 mm, p=0.002): 0.7 mm
- mean increase in outer urethral muscle diameter (week 12, baseline 15.4 mm, p=0.0003): 0.7 mm
